Source: patent publication US20260200926A1, “TREM2 MODULATORS” (Muna Therapeutics ApS, priority 2022, published 2026)
Like-named read-outs stand apart in the source and are kept apart here.

Biological target: T1, Human TREM2 (Homo sapiens, UniProt Q9NZC2)
T1 construct: expressed in transfected cells
Experiment: Human TREM2 activity: cellular phosphorylation of Syk (AlphaLISA SureFire Ultra p-SYK) in HEK293/DAP12+TREM2 stable cell line
Assay type: cell-based
Settings: for EC50: phospho-Syk AlphaLISA signal, HEK293/DAP12+TREM2 cells, concentration giving 50% of maximal response, read-out: EC50
Description: Human TREM2, in vitro Measurement of Triggering Receptor Expressed on Myeloid Cells 2 activity using cellular phosphorylation of Spleen Tyrosine Kinase (“Syk”) Assay
HEK-293 cells were co-transfected with separate plasmids encoding TREM2 and DAP12 to generate a stable cell line. After antibiotic selection, functional clone pool analysis and two successive limiting dilutions, the final clone “HEK293/DAP12+TREM2” underwent a qPCR analysis and a pharmacological validation.
TREM2 signaling through DAP12 was monitored in the HEK293/DAP12+TREM2 stable cell line by measuring the phosphorylation levels of the Syk kinase using the commercially available AlphaLISA SureFire Ultra p-SYK (Tyr525/526) Assay Kit (PerkinElmer #ALSU-PSYK), based on the Perkin Elmer AlphaScreen/AlphaLISA technology.
Compounds are transferred to the test plate and tested in full dose response, 8 concentrations in quadruplicate data points. Compound serial dilutions were performed at Cybi-Felix instrument in 100% DMSO and the dose response curves were assembled in automated fashion in 384MPT at Hamilton STARlet instrument. All the stock solutions were prepared at 20 mM in 100% DMSO. For compounds testing, the starting concentration was 100 μM, dilution steps 1:6. […] Finally, a 384MPT reformatted for all compounds at 8 concentrations, quadruplicates, was used as “mother to child” process with a CyBi®-Well dispenser in which 1 μL of each compound was moved into a destination plate pre-filled with 65.6 μL of EMEM cell culture medium (BIOWHITTAKER_cat.BE12-125F), thus obtaining 3× concentrated compounds working solution. In columns 1-2 and 23-24 the control wells were added. In particular, dose response curves of a reference control agonist were included in column 1 and 24 as reference control agonist (Reference control agonists used include Human TREM2 polyclonal Antibody AF1828: R&D Systems; Human TREM2 monoclonal Antibody MAB1828: R&D Systems). The dose response curves were tested starting at 30 μM, dilution step 1:6. Both “source” compound plate and “destination” compound plate were barcoded and a relationship between the two plates was thus generated.
HEK293/DAP12+TREM2 cells were cultured in EMEM medium supplemented with IX Penicillin/Streptomycin (BIOWHITTAKER_cat.DE17-602E), ULTRAGLUTAMINE I 200 mM, 10% Fetal Bovine Serum plus antibiotics referred to as “HEK293 Culture Medium”. The day before the experiment, cells were detached by gentle wash with DPBS, followed by 5 min incubation at 37° C. with Trypsin solution. Cells were then diluted in HEK293 Culture Medium without antibiotics, counted and seeded into 384-well poly-D-Lysine coated microplates black/clear bottom (GREINER 781946) at a density of 10,000 cells/well in 25 μL/well by the use of a MATRIX WellMate dispenser. Plates were placed into a humidified cell culture incubator at 37° C. with 5% CO2 until the experimental day. 20-24 hours after seeding mature medium was removed and replaced with 10 μL/well of EMEM cell medium supplemented with 0.1% Pluronic F-68 non-ionic surfactant (Thermofisher, 24040032), referred to as “Assay Buffer”, using the CyBi®-Well instrument. Then 5 μL/well of Assay Buffer containing 3× concentrated test compounds or the reference control agonist (in 0.5% final DMSO concentration) were added to the cells with the CyBi®-Well instrument. Cell plates were incubated for 30 min into a humidified cell culture incubator at 37° C. with 5% CO2·, then the medium was removed by manually discard. 20 μL/well of lysis buffer were dispensed using the CyBi®-Well instrument and plates were incubated for 10 min at room temperature on a plate shaker (350 rpm). Then, 10 μL/well of lysate were transferred to the Alpha plates. The CyBi®-Well instrument was used to dispense 5 μL/well of AlphaLISA Acceptor Bead Solution in IX Immunoassay buffer (Perkin Elmer AL000F). Then the plates were sealed with Heat sealing foil, shaked for 2 minutes (350 rpm) and incubated for 1 hour at room temperature.

[1] = HEK293, maximal response relative to reference agonist example 1B (remaining examples), read-out: Emax
[2] = HEK293, maximal response relative to reference agonist human TREM2 MAB1828 (examples 1, 1A and 1B), read-out: Emax

T1 sequence (Q9NZC2 19-230): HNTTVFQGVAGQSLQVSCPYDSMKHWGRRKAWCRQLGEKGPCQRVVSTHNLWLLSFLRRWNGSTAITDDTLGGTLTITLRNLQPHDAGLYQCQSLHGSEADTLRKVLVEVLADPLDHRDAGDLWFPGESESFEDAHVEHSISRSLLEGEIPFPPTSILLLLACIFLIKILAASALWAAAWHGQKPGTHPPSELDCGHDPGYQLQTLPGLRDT
T1 sequence (O43914 22-113 partner): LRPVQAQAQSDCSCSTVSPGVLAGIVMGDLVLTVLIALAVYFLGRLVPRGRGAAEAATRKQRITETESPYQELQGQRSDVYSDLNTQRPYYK

| Compound | Emax (maximal response relative to reference agonist example 1B (remaining examples)) | EC50 [nM] | Emax [1] [%] | Emax [2] [%] |
| --- | --- | --- | --- | --- |
| 6-((2R,4S)-2-(1-cyclopropyl-1H-pyrazol-4-yl)tetrahydro-2H-pyran-4-yl)-8-(2-fluoro-4-(trifluoromethyl)phenyl)-2,3-dimethylquinazolin-4 (3H)-one [Example 120B] | ++ (75-110%) | 10 to 100 | – | – |
| Cc1nc2c(-c3ccc(Cl)cc3F)nc([C@H]3CCO[C@@H](c4cnn(C5CC5)c4)C3)nc2c(=O)n1C (racemic) [Example 14, 8-(4-chloro-2-fluorophenyl)-6-((2R,4S)-2-(1-cyclopropyl-1H-pyrazol-4-yl)tetrahydro-2H-pyran-4-yl)-2,3-dimethylpyrimido[5,4-d]pyrimidin-4 (3H)-one] | – | 100 to 1000 | 75 to 110 | – |
| Cc1nc2c(-c3ccc(C(F)(F)F)nc3)nc(N3CCOC(c4cnn(C5CC5)c4)C3)nc2c(=O)n1C (racemic) [Example 19, 6-(2-(1-cyclopropyl-1H-pyrazol-4-yl)morpholino)-2,3-dimethyl-8-(6-(trifluoromethyl)pyridin-3-yl)pyrimido[5,4-d]pyrimidin-4 (3H)-one] | – | 10 to 100 | < 75 | – |
| Cc1ncc([C@H]2C[C@@H](c3nc(-c4ccc(Cl)cc4F)c4nc(C)n(C)c(=O)c4n3)CCO2)cn1 (racemic) [Example 37, 8-(4-chloro-2-fluorophenyl)-2,3-dimethyl-6-((2R,4S)-2-(2-methylpyrimidin-5-yl)tetrahydro-2H-pyran-4-yl)pyrimido[5,4-d]pyrimidin-4 (3H)-one] | – | 100 to 1000 | 75 to 110 | – |
| Cc1nc2c(-c3ccc(F)cc3F)nc(N3CC(C)OC(c4cnn(C5CC5)c4)C3)nc2c(=O)n1C (racemic) [Example 177C, 6-(2-(1-cyclopropyl-1H-pyrazol-4-yl)-6-methylmorpholino)-8-(2,4-difluorophenyl)-2,3-dimethylpyrimido[5,4-d]pyrimidin-4 (3H)-one] | – | 100 to 1000 | < 75 | – |
| Cc1nc2c(-c3ccc(Cl)cc3F)nc(N3CCO[C@H](c4cnn(C)c4)C3)nc2c(=O)n1C (single isomer, unassigned) [Example 1A] | – | 100 to 1000 | – | 75 to 110 |
| Cc1nc2c(-c3ccc(Cl)cc3F)nc(N3CCO[C@@H](c4cnn(C)c4)C3)nc2c(=O)n1C (single isomer, unassigned) [Example 1B] | – | 10 to 100 | – | > 110 |
| Cc1nc2c(-c3ccc(C(F)(F)F)cc3F)nc(N3CCO[C@H](c4cnn(C5CC5)c4)C3)nc2c(=O)n1C (single isomer, unassigned) [Example 20A] | – | 10 to 100 | 75 to 110 | – |
| Cc1nc2c(-c3ccc(C(F)(F)F)cc3F)nc(N3CCO[C@@H](c4cnn(C5CC5)c4)C3)nc2c(=O)n1C (single isomer, unassigned) [Example 20B] | – | 1 to 10 | 75 to 110 | – |
| Cc1cc([C@@H]2CN(c3nc(-c4ccc(C(F)(F)F)cc4F)c4nc(C)n(C)c(=O)c4n3)CCO2)ccn1 (single isomer, unassigned) [Example 21A] | – | 10 to 100 | 75 to 110 | – |
| Cc1cc([C@H]2CN(c3nc(-c4ccc(C(F)(F)F)cc4F)c4nc(C)n(C)c(=O)c4n3)CCO2)ccn1 (single isomer, unassigned) [Example 21B] | – | < 1 | 75 to 110 | – |
| Cc1cc([C@@H]2CN(c3nc(-c4ccc(C(F)(F)F)nc4)c4nc(C)n(C)c(=O)c4n3)CCO2)ccn1 (single isomer, unassigned) [Example 22A] | – | 100 to 1000 | 75 to 110 | – |
| Cc1cc([C@H]2CN(c3nc(-c4ccc(C(F)(F)F)nc4)c4nc(C)n(C)c(=O)c4n3)CCO2)ccn1 (single isomer, unassigned) [Example 22B] | – | 1 to 10 | 75 to 110 | – |
| Cc1cc([C@@H]2CN(c3nc(-c4ccc(Cl)cc4F)c4nc(C)n(C)c(=O)c4n3)CCO2)ccn1 (single isomer, unassigned) [Example 23A] | – | 10 to 100 | < 75 | – |
| Cc1cc([C@H]2CN(c3nc(-c4ccc(Cl)cc4F)c4nc(C)n(C)c(=O)c4n3)CCO2)ccn1 (single isomer, unassigned) [Example 23B] | – | 1 to 10 | 75 to 110 | – |
| Cc1nc2c(-c3ccc(Cl)cc3F)nc([C@@H]3CCO[C@H](c4cnn(C5CC5)c4)C3)nc2c(=O)n1C (single isomer, unassigned) [Example 24A] | – | 1 to 10 | 75 to 110 | – |
| Cc1nc2c(-c3ccc(Cl)cc3F)nc([C@H]3CCO[C@@H](c4cnn(C5CC5)c4)C3)nc2c(=O)n1C (single isomer, unassigned) [Example 24B] | – | 100 to 1000 | < 75 | – |
| Cc1nc2c(-c3ccc(C(F)(F)F)cc3F)nc(N3CCO[C@H](c4cnn(C)c4)C3)nc2c(=O)n1C (single isomer, unassigned) [Example 25A] | – | 10 to 100 | < 75 | – |
| Cc1nc2c(-c3ccc(C(F)(F)F)cc3F)nc(N3CCO[C@@H](c4cnn(C)c4)C3)nc2c(=O)n1C (single isomer, unassigned) [Example 25B] | – | 10 to 100 | < 75 | – |
| Cc1nc2c(-c3ccc(Cl)cc3F)nc(N3CCO[C@H](c4cnn(C5CC5)c4)C3)nc2c(=O)n1C (single isomer, unassigned) [Example 26A] | – | 10 to 100 | 75 to 110 | – |
| Cc1nc2c(-c3ccc(Cl)cc3F)nc(N3CCO[C@@H](c4cnn(C5CC5)c4)C3)nc2c(=O)n1C (single isomer, unassigned) [Example 26B] | – | 1 to 10 | 75 to 110 | – |
| Cc1nc2c(-c3cc(F)c(F)cc3F)nc(N3CCO[C@H](c4cnn(C)c4)C3)nc2c(=O)n1C (single isomer, unassigned) [Example 27A] | – | 10 to 100 | < 75 | – |
| Cc1nc2c(-c3cc(F)c(F)cc3F)nc(N3CCO[C@@H](c4cnn(C)c4)C3)nc2c(=O)n1C (single isomer, unassigned) [Example 27B] | – | 10 to 100 | 75 to 110 | – |
| Cc1nc2c(-c3ccc(C(F)(F)F)nc3)nc(N3CCO[C@H](c4cnn(C)c4)C3)nc2c(=O)n1C (single isomer, unassigned) [Example 28A] | – | > 1000 | 75 to 110 | – |
| Cc1nc2c(-c3ccc(C(F)(F)F)nc3)nc(N3CCO[C@@H](c4cnn(C)c4)C3)nc2c(=O)n1C (single isomer, unassigned) [Example 28B] | – | 10 to 100 | 75 to 110 | – |
| Cc1nc2c(-c3cc(F)c(F)cc3F)nc([C@@H]3CCO[C@H](c4cnn(C)c4)C3)nc2c(=O)n1C (single isomer, unassigned) [Example 38A] | – | 100 to 1000 | < 75 | – |
| Cc1nc2c(-c3ccc(C(F)(F)F)cc3F)nc([C@@H]3CCO[C@H](c4cnn(C)c4)C3)nc2c(=O)n1C (single isomer, unassigned) [Example 65] | – | 10 to 100 | 75 to 110 | – |
| Cc1nc2c(-c3ccc(C(F)(F)F)cc3F)nc([C@H]3CCO[C@@H](c4cnn(C)c4)C3)nc2c(=O)n1C (single isomer, unassigned) [Example 66] | – | > 1000 | 75 to 110 | – |
| Cc1nc2c(-c3ccc(Cl)cc3F)nc([C@@H]3CCO[C@H](c4cnn(C)c4)C3)nc2c(=O)n1C (single isomer, unassigned) [Example 67] | – | 100 to 1000 | > 110 | – |
| Cc1nc2c(-c3ccc(Cl)cc3F)nc([C@H]3CCO[C@@H](c4cnn(C)c4)C3)nc2c(=O)n1C (single isomer, unassigned) [Example 68] | – | > 1000 | 75 to 110 | – |
